Test results taken from ChEMBL document CHEMBL4373720, “Discovery of Conformationally Restricted Human Glutaminyl Cyclase Inhibitors as Potent Anti-Alzheimer's Agents by Structure-Based Design” (J Med Chem, 2019).
Active and inactive are the calls of the source. No cut-off for these calls is given here.

What was measured:
[1] = Cytotoxicity against mouse HT22 cells assessed as cell viability at 10 uM measured after 18 hrs by MTT assay relative to control; type: cell-based, HT-22; conditions: read-out: Activity
hERG (KCNH2) = hERG (KCNH2) (Homo sapiens, UniProt Q12809); assay: Displacement of tracer red from human ERG at 10 uM by fluorescence polarization assay relative to control; conditions: probe tracer red
hERG (KCNH2), sequence (Q12809 whole entry): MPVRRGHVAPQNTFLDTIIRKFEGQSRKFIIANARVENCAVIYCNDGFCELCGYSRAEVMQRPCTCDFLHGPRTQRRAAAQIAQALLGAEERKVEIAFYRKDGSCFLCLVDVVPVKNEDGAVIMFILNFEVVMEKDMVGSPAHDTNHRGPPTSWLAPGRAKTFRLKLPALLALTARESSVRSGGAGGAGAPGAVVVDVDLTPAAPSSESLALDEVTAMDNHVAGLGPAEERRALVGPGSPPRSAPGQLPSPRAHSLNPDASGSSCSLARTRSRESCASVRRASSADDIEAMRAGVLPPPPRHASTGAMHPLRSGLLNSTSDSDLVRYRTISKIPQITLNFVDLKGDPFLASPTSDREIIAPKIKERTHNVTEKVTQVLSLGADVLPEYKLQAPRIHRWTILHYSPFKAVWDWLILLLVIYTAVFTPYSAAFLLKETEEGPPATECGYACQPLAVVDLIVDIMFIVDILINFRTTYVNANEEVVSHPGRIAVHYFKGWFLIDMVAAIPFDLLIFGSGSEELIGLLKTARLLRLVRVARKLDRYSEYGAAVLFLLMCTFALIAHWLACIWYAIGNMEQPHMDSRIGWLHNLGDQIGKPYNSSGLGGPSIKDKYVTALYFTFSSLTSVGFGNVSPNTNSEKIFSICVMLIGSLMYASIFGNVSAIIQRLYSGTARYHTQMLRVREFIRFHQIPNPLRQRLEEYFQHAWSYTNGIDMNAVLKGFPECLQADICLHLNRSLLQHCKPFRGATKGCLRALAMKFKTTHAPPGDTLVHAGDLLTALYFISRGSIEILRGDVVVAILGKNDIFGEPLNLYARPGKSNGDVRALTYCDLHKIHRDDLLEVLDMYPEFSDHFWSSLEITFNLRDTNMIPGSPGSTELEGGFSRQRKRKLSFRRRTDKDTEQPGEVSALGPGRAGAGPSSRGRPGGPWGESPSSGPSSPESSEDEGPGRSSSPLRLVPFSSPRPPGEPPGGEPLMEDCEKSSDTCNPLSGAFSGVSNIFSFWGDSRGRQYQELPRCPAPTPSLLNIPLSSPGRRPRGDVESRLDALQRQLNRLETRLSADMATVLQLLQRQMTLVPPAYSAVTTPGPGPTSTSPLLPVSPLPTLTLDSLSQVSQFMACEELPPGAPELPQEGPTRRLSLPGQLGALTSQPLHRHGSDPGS

Mus musculus [2] = species: Mus musculus; assay: animal or person; conditions: ICR, central, 24 h, read-out: INH
[3] = Stability in mouse liver microsomes assessed as parent compound remaining measured after 30 mins; type: ADME, Microsome; conditions: read-out: Stability
Mus musculus [4] = assay: Neuroprotection in human amyloid beta (3 to 40 residues)-induced ICR mouse model of Alzheimer's disease assessed as inhibition of human amyloid beta N3pE-40 level in brain at 25 mg/kg, ip measured after 24 hrs by sandwich ELISA relative to control; type: functional
[5] = Stability in human liver microsomes assessed as parent compound remaining measured after 30 mins; type: ADME, Microsome; conditions: read-out: Stability
Mus musculus [6] = species: Mus musculus; conditions: ICR, 25 mg/kg

Structure (SMILES)	viability at 18 h, 10 µM [1] [%]	inhibition at 10 µM (hERG (KCNH2)) [%]	inhibition in vivo at 25 mg/kg (Mus musculus [2]) [%]	remaining at 0.5 h [3] [%]	inhibition in vivo at 25 mg/kg (Mus musculus [4]) [%]	remaining at 0.5 h [5] [%]	inhibition (Mus musculus [6])
COc1ccc(N(CC2CCCC2)C(=O)NCCCn2cncc2C)cc1OC	100	29.6	2.96	–	–	–	–
COc1ccc(N(CCCCc2ccnc(N)c2)C(=O)NCCCn2cncc2C)cc1OC	100	48	24.4	21.6	22.7	43.1	–
COc1ccc(N(C(=S)NCCCn2cncc2C)C2CCCC2)cc1OC	81.7	31.8	1.17	–	–	–	–
COc1ccc(N(C(=S)NCCCn2cncc2C)C(C)C)cc1OC	100	46.3	6	–	–	–	–
COc1ccc(N(CC(C)C)C(=O)NCCCn2cncc2C)cc1OC	100	23.7	–	–	–	–	inactive
COc1ccc(N(Cc2ccccc2)C(=S)NCCCn2cncc2C)cc1OC	80.4	71.5	15.3	–	–	–	–
COc1ccc(N(Cc2ccc(Cl)cc2)C(=S)NCCCn2cncc2C)cc1OC	100	86.8	0.73	–	–	–	–
COc1ccc(N(C(=S)NCCCn2cncc2C)C2CCC2)cc1OC	86.7	11.5	–	–	–	–	inactive
COc1ccc(N(Cc2ccc(F)cc2)C(=O)NCCCn2cncc2C)cc1OC	90.7	40.6	–	–	–	–	inactive
COc1ccc(N(CC2CCCC2)C(=S)NCCCn2cncc2C)cc1OC	100	60	2.96	–	–	–	–
COc1ccc(N(Cc2ccc(F)cc2)C(=S)NCCCn2cncc2C)cc1OC	100	83.5	–	–	–	–	inactive
COc1ccc(N(Cc2cccnc2)C(=S)NCCCn2cncc2C)cc1OC	89.3	34.5	5.31	–	–	–	–
COc1ccc(N(C(=S)NCCCn2cncc2C)C2CCCCC2)cc1OC	78.3	59.4	4.01	–	–	–	–
COc1ccc(N(Cc2cccc(F)c2)C(=S)NCCCn2cncc2C)cc1OC	91.7	77.6	6.66	–	–	–	–
COc1ccc(N(Cc2cccc(Cl)c2)C(=S)NCCCn2cncc2C)cc1OC	88.2	86	–	–	–	–	inactive
COc1ccc(N(CCCCc2ccnc(NCCN)c2)C(=O)NCCCn2cncc2C)cc1OC	82.2	40.8	13.7	–	–	–	–
COc1ccc(N(Cc2ccncc2)C(=S)NCCCn2cncc2C)cc1OC	100	32.3	11.6	–	–	–	–
COc1ccc(N(C(=O)NCCCn2cncc2C)C2CCCCC2)cc1OC	88.6	12.2	–	–	–	–	inactive
COc1ccc(N(CC(C)C)C(=S)NCCCn2cncc2C)cc1OC	100	39.9	–	–	–	–	inactive
CCN(C(=S)NCCCn1cncc1C)c1ccc(OC)c(OC)c1	88.4	–	–	–	–	–	inactive
COc1ccc(N(Cc2cccnc2)C(=O)NCCCn2cncc2C)cc1OC	100	33.2	26	12.8	22.9	44	–
